Results taken from the supplement of paper PMC6045584.
± gives the standard deviation of the averaged measurements.

Legend:
[1] = compound: C[C@@H]1CN(CC(=O)Nc2ccc3c(c2)Cc2cccc(-c4cc(=O)cc(N5CCOCC5)o4)c2S3)C[C@H](C)O1; experiment: surviving fraction relative to DMSO-only wells; higher = less growth inhibition; conditions: exposure time: 5 days
How it was run: (§1)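 In 384-well plates, 250–500 log-phase tumour cells per well were given 24 hours before five days of continuous exposure to inhibitors at 0.5, 1, 5, 10, 50, 100, 500 and 1000 nM. Surviving fraction is luminescence from CellTiter-Glo, normalised to the median of wells containing DMSO alone. Reading took place after 10 minutes at room temperature.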

[2] = compound: Cc1c(N)nc([C@H](CC(N)=O)NC[C@H](N)C(N)=O)nc1C(=O)N[C@H](C(=O)N[C@H](C)[C@@H](O)[C@H](C)C(=O)N[C@H](C(=O)NCCc1nc(-c2nc(C(=O)NCCC[S+](C)C)cs2)cs1)[C@@H](C)O)[C@@H](OC1OC(CO)C(O)C(O)C1OC1OC(CO)C(O)C(OC(N)=O)C1O)c1cnc[nH]1 [BLEOMYCIN]; experiment: as above; conditions: exposure time: 5 days
How it was run: as §1

Test System SUM149 BREAST has a surviving fraction ([1]; 0.5 nM) of 0.874 ± 0.049, a surviving fraction ([1]; 1 nM) of 0.885 ± 0.1 and a surviving fraction ([1]; 5 nM) of 0.96 ± 0.089. The surviving fraction ([1]; 10 nM) was 0.862 ± 0.035, the surviving fraction ([1]; 50 nM) was 1.01 ± 0.017 and the surviving fraction ([1]; 100 nM) was 0.917 ± 0.029. It also gave a surviving fraction ([1]; 500 nM) of 0.819 ± 0.11, a surviving fraction ([1]; 1000 nM) of 0.667 ± 0.024 and a surviving fraction ([2]; 0.5 nM) of 0.779 ± 0.092. For the same test system, the surviving fraction ([2]; 1 nM) was 0.889 ± 0.09, the surviving fraction ([2]; 5 nM) was 0.707 ± 0.034 and the surviving fraction ([2]; 10 nM) was 0.451 ± 0.08. The surviving fraction ([2]; 50 nM) was 0.273 ± 0.029, the surviving fraction ([2]; 100 nM) was 0.255 ± 0.069 and the surviving fraction ([2]; 500 nM) was 0.106 ± 0.015. For the same test system, the surviving fraction ([2]; 1000 nM) was 0.048 ± 0.013.
SUM149.B1*.S BREAST gave a surviving fraction ([1]; 0.5 nM) of 1.07 ± 0.062, a surviving fraction ([1]; 1 nM) of 1.06 ± 0.064 and a surviving fraction ([1]; 5 nM) of 1.05 ± 0.025. It also gave a surviving fraction ([1]; 10 nM) of 1.03 ± 0.027, a surviving fraction ([1]; 50 nM) of 1.07 ± 0.071 and a surviving fraction ([1]; 100 nM) of 1.05 ± 0.016. It also gave a surviving fraction ([1]; 500 nM) of 1.08 ± 0.045, a surviving fraction ([1]; 1000 nM) of 1.07 ± 0.074 and a surviving fraction ([2]; 0.5 nM) of 0.884 ± 0.032. The surviving fraction ([2]; 1 nM) was 0.943 ± 0.024, the surviving fraction ([2]; 5 nM) was 0.928 ± 0.028 and the surviving fraction ([2]; 10 nM) was 0.883 ± 0.042. It also gave a surviving fraction ([2]; 50 nM) of 0.937 ± 0.066, a surviving fraction ([2]; 100 nM) of 0.939 ± 0.059 and a surviving fraction ([2]; 500 nM) of 0.55 ± 0.061. The surviving fraction ([2]; 1000 nM) was 0.394 ± 0.096.
In the case of SUM159 BREAST, the surviving fraction ([1]; 0.5 nM) is reported as 1.08 ± 0.012, the surviving fraction ([1]; 1 nM) is reported as 1.15 ± 0.11 and the surviving fraction ([1]; 5 nM) is reported as 1.11 ± 0.048. For the same test system, the surviving fraction ([1]; 10 nM) was 1.13 ± 0.11, the surviving fraction ([1]; 50 nM) was 1.11 ± 0.079 and the surviving fraction ([1]; 100 nM) was 1.1 ± 0.023. The surviving fraction ([1]; 500 nM) was 1.13 ± 0.11, the surviving fraction ([1]; 1000 nM) was 1.05 ± 0.029 and the surviving fraction ([2]; 0.5 nM) was 1.07 ± 0.18. For the same test system, the surviving fraction ([2]; 1 nM) was 1.02 ± 0.094, the surviving fraction ([2]; 5 nM) was 1.01 ± 0.082 and the surviving fraction ([2]; 10 nM) was 0.999 ± 0.086. For the same test system, the surviving fraction ([2]; 50 nM) was 0.948 ± 0.034, the surviving fraction ([2]; 100 nM) was 0.908 ± 0.031 and the surviving fraction ([2]; 500 nM) was 0.673 ± 0.13. The surviving fraction ([2]; 1000 nM) was 0.246 ± 0.065.
In the case of SYO1 SYNOVIAL, the surviving fraction ([1]; 0.5 nM) is reported as 0.997 ± 0.021, the surviving fraction ([1]; 1 nM) is reported as 1 ± 0.029 and the surviving fraction ([1]; 5 nM) is reported as 0.987 ± 0.049. The surviving fraction ([1]; 10 nM) was 1.07 ± 0.019, the surviving fraction ([1]; 50 nM) was 0.993 ± 0.023 and the surviving fraction ([1]; 100 nM) was 1.03 ± 0.018. For the same test system, the surviving fraction ([1]; 500 nM) was 0.894 ± 0.019, the surviving fraction ([1]; 1000 nM) was 0.781 ± 0.011 and the surviving fraction ([2]; 0.5 nM) was 0.809 ± 0.058. It also gave a surviving fraction ([2]; 1 nM) of 0.778 ± 0.044, a surviving fraction ([2]; 5 nM) of 0.753 ± 0.035 and a surviving fraction ([2]; 10 nM) of 0.695 ± 0.029. The surviving fraction ([2]; 50 nM) was 0.45 ± 0.014, the surviving fraction ([2]; 100 nM) was 0.355 ± 0.032 and the surviving fraction ([2]; 500 nM) was 0.104 ± 0.019. It also gave a surviving fraction ([2]; 1000 nM) of 0.0704 ± 0.019.
For T47D BREAST, the surviving fraction ([1]; 0.5 nM) was 1.02 ± 0.018, the surviving fraction ([1]; 1 nM) was 1.01 ± 0.022 and the surviving fraction ([1]; 5 nM) was 1.03 ± 0.013. The surviving fraction ([1]; 10 nM) was 0.9914 ± 0.0016, the surviving fraction ([1]; 50 nM) was 1.06 ± 0.027 and the surviving fraction ([1]; 100 nM) was 1.049 ± 0.0087. For the same test system, the surviving fraction ([1]; 500 nM) was 1.047 ± 0.0069, the surviving fraction ([1]; 1000 nM) was 0.945 ± 0.051 and the surviving fraction ([2]; 0.5 nM) was 0.947 ± 0.019. It also gave a surviving fraction ([2]; 1 nM) of 0.915 ± 0.011, a surviving fraction ([2]; 5 nM) of 0.891 ± 0.02 and a surviving fraction ([2]; 10 nM) of 0.9369 ± 0.0063. For the same test system, the surviving fraction ([2]; 50 nM) was 0.951 ± 0.02, the surviving fraction ([2]; 100 nM) was 0.923 ± 0.039 and the surviving fraction ([2]; 500 nM) was 0.693 ± 0.011. For the same test system, the surviving fraction ([2]; 1000 nM) was 0.57 ± 0.03.
With U2OS BONE the surviving fraction ([1]; 0.5 nM) was 1.06 ± 0.052, the surviving fraction ([1]; 1 nM) was 1.09 ± 0.057 and the surviving fraction ([1]; 5 nM) was 1.08 ± 0.029. For the same test system, the surviving fraction ([1]; 10 nM) was 1.08 ± 0.025, the surviving fraction ([1]; 50 nM) was 1.1 ± 0.058 and the surviving fraction ([1]; 100 nM) was 1.09 ± 0.061. For the same test system, the surviving fraction ([1]; 500 nM) was 1.03 ± 0.048, the surviving fraction ([1]; 1000 nM) was 1.02 ± 0.05 and the surviving fraction ([2]; 0.5 nM) was 0.904 ± 0.028. For the same test system, the surviving fraction ([2]; 1 nM) was 0.942 ± 0.05, the surviving fraction ([2]; 5 nM) was 0.933 ± 0.04 and the surviving fraction ([2]; 10 nM) was 0.9 ± 0.039. For the same test system, the surviving fraction ([2]; 50 nM) was 1.01 ± 0.023, the surviving fraction ([2]; 100 nM) was 0.8983 ± 0.0064 and the surviving fraction ([2]; 500 nM) was 0.734 ± 0.017. For the same test system, the surviving fraction ([2]; 1000 nM) was 0.617 ± 0.011.
Test System VCAP PROSTATE has a surviving fraction ([1]; 0.5 nM) of 1.01 ± 0.035, a surviving fraction ([1]; 1 nM) of 1.08 ± 0.066 and a surviving fraction ([1]; 5 nM) of 1.11 ± 0.14. For the same test system, the surviving fraction ([1]; 10 nM) was 1.18 ± 0.15, the surviving fraction ([1]; 50 nM) was 1.19 ± 0.094 and the surviving fraction ([1]; 100 nM) was 1.14 ± 0.11. For the same test system, the surviving fraction ([1]; 500 nM) was 0.922 ± 0.057, the surviving fraction ([1]; 1000 nM) was 0.967 ± 0.079 and the surviving fraction ([2]; 0.5 nM) was 0.905 ± 0.018. It also gave a surviving fraction ([2]; 1 nM) of 0.953 ± 0.077, a surviving fraction ([2]; 5 nM) of 1.07 ± 0.12 and a surviving fraction ([2]; 10 nM) of 1.05 ± 0.12. It also gave a surviving fraction ([2]; 50 nM) of 1.07 ± 0.12, a surviving fraction ([2]; 100 nM) of 1.02 ± 0.078 and a surviving fraction ([2]; 500 nM) of 0.84 ± 0.024. It also gave a surviving fraction ([2]; 1000 nM) of 0.889 ± 0.081.
In the case of VP229 BREAST, the surviving fraction ([1]; 0.5 nM) is reported as 1.03 ± 0.15, the surviving fraction ([1]; 1 nM) is reported as 1.07 ± 0.05 and the surviving fraction ([1]; 5 nM) is reported as 1.09 ± 0.14. For the same test system, the surviving fraction ([1]; 10 nM) was 1.06 ± 0.07, the surviving fraction ([1]; 50 nM) was 0.9067 ± 0.0046 and the surviving fraction ([1]; 100 nM) was 0.916 ± 0.14. It also gave a surviving fraction ([1]; 500 nM) of 1.11 ± 0.062, a surviving fraction ([1]; 1000 nM) of 0.897 ± 0.075 and a surviving fraction ([2]; 0.5 nM) of 0.776 ± 0.093. The surviving fraction ([2]; 1 nM) was 0.759 ± 0.052, the surviving fraction ([2]; 5 nM) was 0.754 ± 0.081 and the surviving fraction ([2]; 10 nM) was 0.711 ± 0.072. The surviving fraction ([2]; 50 nM) was 0.915 ± 0.089, the surviving fraction ([2]; 100 nM) was 0.893 ± 0.093 and the surviving fraction ([2]; 500 nM) was 0.837 ± 0.08. It also gave a surviving fraction ([2]; 1000 nM) of 0.665 ± 0.076.
In the case of YAMATO SYNOVIAL, the surviving fraction ([1]; 0.5 nM) is reported as 1.41 ± 0.1, the surviving fraction ([1]; 1 nM) is reported as 1.44 ± 0.13 and the surviving fraction ([1]; 5 nM) is reported as 1.38 ± 0.1. For the same test system, the surviving fraction ([1]; 10 nM) was 1.46 ± 0.03, the surviving fraction ([1]; 50 nM) was 0.925 ± 0.031 and the surviving fraction ([1]; 100 nM) was 0.965 ± 0.046. The surviving fraction ([1]; 500 nM) was 0.884 ± 0.14, the surviving fraction ([1]; 1000 nM) was 0.855 ± 0.045 and the surviving fraction ([2]; 0.5 nM) was 0.889 ± 0.13. The surviving fraction ([2]; 1 nM) was 0.929 ± 0.095, the surviving fraction ([2]; 5 nM) was 0.955 ± 0.081 and the surviving fraction ([2]; 10 nM) was 1.03 ± 0.075. For the same test system, the surviving fraction ([2]; 50 nM) was 1.21 ± 0.083, the surviving fraction ([2]; 100 nM) was 1.11 ± 0.08 and the surviving fraction ([2]; 500 nM) was 0.871 ± 0.088. The surviving fraction ([2]; 1000 nM) was 0.796 ± 0.033.
In the case of ZR751 BREAST, the surviving fraction ([1]; 0.5 nM) is reported as 1.01 ± 0.1, the surviving fraction ([1]; 1 nM) is reported as 1.08 ± 0.19 and the surviving fraction ([1]; 5 nM) is reported as 1.02 ± 0.21. The surviving fraction ([1]; 10 nM) was 0.959 ± 0.13, the surviving fraction ([1]; 50 nM) was 0.951 ± 0.035 and the surviving fraction ([1]; 100 nM) was 0.956 ± 0.076. The surviving fraction ([1]; 500 nM) was 1.06 ± 0.24, the surviving fraction ([1]; 1000 nM) was 0.977 ± 0.071 and the surviving fraction ([2]; 0.5 nM) was 0.985 ± 0.037. It also gave a surviving fraction ([2]; 1 nM) of 0.975 ± 0.083, a surviving fraction ([2]; 5 nM) of 0.925 ± 0.1 and a surviving fraction ([2]; 10 nM) of 0.957 ± 0.19. For the same test system, the surviving fraction ([2]; 50 nM) was 0.905 ± 0.073, the surviving fraction ([2]; 100 nM) was 0.924 ± 0.17 and the surviving fraction ([2]; 500 nM) was 0.897 ± 0.15. It also gave a surviving fraction ([2]; 1000 nM) of 0.69 ± 0.12.
